Reference: patent publication US5045566A, “Novel imidate insecticides” (ICI Americas Inc., priority 1989, dated 1991)

Key:
Format in all cases: in vivo
[1] = tested on: Maize weevil [Sitophilus zeamais (Motschulsky)]; assay: Maize weevil on dipped corn seeds (MW), 48 hours; conditions: percent in solution, adult weevils
In short: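 LC50, given as percent of compound in dipping solution, comes from dosage-mortality curves over concentrations descending from 0.01%. Four corn seeds soaked 2-3 s in 50:50 acetone:water solution were dried and held with 10 adult weevils, about 25° C, mortality read after 48 h.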

[2] = tested on: Housefly [Musca domestica]; assay: Housefly contact mortality in dishes (HF), 48 hours; conditions: μg of test compound per 25 female flies
In short: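 Acetone solutions (with 0.01% peanut oil) dried onto dish bottoms, then 25 female flies, 1-2 days old, caged over the residue with sugar water. Mortality scored at 48 hours; LC50 from dosage-mortality curves, in μg per 25 female flies, top level 100 μg.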

[3] = tested on: Tobacco Budworm [Heliothis virescens (Fabricius)] eggs; assay: Tobacco budworm eggs (TBW-E); conditions: percent in solution; 2-day old eggs
In short: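 Mortality of dipped eggs served as read-out, recorded after untreated controls hatched and began feeding. Treatments used acetone solutions from 0.1% downward, with eggs incubated at 78° F; LC50 is expressed as percent of compound in the solution.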

[4] = tested on: Cabbage Looper [Trichoplusia ni (Hubner)]; assay: Cabbage looper leaf dip (CL), 3-5 days; conditions: percent in solution, second-instar larvae
In short: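 Steps: dilute compound in 50-50 acetone-water from 0.1% downward; immerse cotyledon pieces 2-3 s and dry; place in humid petri dishes with five second-instar larvae; record mortality at 3-5 days. Dosage-mortality curves yield LC50 as percent in solution.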

[5] = tested on: Aster Leafhopper [Macrosteles fascifrens (Stal)]; assay: Aster leafhopper on dipped oat seedlings (LH), 48 hours; conditions: percent in solution, adults/nymphs
In short: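 Three ~10 cm oat seedlings per cup were dipped 2-3 seconds in 50-50 acetone-water compound solutions, dried, and caged with ten adult/nymph leafhoppers. Mortality was counted after 48 hours at concentrations from 0.05% downward. LC50, as percent compound in solution, came from dosage-mortality curves.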

[6] = tested on: Black Bean Aphid [Aphis fabae (Scop.)]; assay: Black bean aphid spray test on nasturtium (BBA), 48 hours; conditions: percent of test compound in sprayed solution
In short: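 LC50, given as percent test compound in the sprayed liquid, was calculated from dosage-mortality curves using concentrations from 0.05% downward. Sprays in 50:50 acetone-water went to runoff on ~5 cm nasturtiums carrying 25-50 aphids of mixed ages, one day after infestation. Deaths were counted 48 h later under greenhouse conditions.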

## CC(C)(F)C(=Nc1ccc(F)c(Cl)c1)OCc1cccc(Oc2ccc(F)cc2F)c1 [Compound 315]
[1]
  LC50 MW: > 0.01%
[2]
  LC50 HF: > 100 µg
[3]
  LC50 TBW E (eggs): > 0.1%
[4]
  LC50 CL: 0.002%
[5]
  LC50 LH: > 0.05%
[6]
  LC50 BBA: > 0.05%

## CC(C)(F)C(=Nc1ccc(F)c(Cl)c1)OCc1cc(Oc2ccc(F)cc2)ccc1F [Compound 316]
[1]
  LC50 MW: > 0.01%
[2]
  LC50 HF: 100 µg
[3]
  LC50 TBW E (eggs): > 0.1%
[4]
  LC50 CL: 0.0015%
[5]
  LC50 LH: > 0.05%
[6]
  LC50 BBA: > 0.05%

## CC(C)C(=Nc1cccc(C(C)(C)C)c1)OCc1cccc(Oc2ccc(F)cc2)c1 [Compound 350]
[1]
  LC50 MW: > 0.01%
[2]
  LC50 HF: > 100 µg
[3]
  LC50 TBW E (eggs): > 0.1%
[4]
  LC50 CL: 0.0045%
[5]
  LC50 LH: > 0.05%
[6]
  LC50 BBA: > 0.05%

## CC(C)C(=Nc1ccc(Br)cc1F)OCc1cccc(Oc2ccc(F)cc2)c1 [Compound 351]
[1]
  LC50 MW: > 0.01%
[2]
  LC50 HF: 26 µg
[3]
  LC50 TBW E (eggs): > 0.1%
[4]
  LC50 CL: 0.0007%
[5]
  LC50 LH: > 0.05%
[6]
  LC50 BBA: 0.001%

## CSc1ccc(N=C(OCc2ccc(F)c(Oc3ccccc3)c2)C(C)C)cc1 [Compound 353]
[1]
  LC50 MW: > 0.01%
[2]
  LC50 HF: < 100 µg
[3]
  LC50 TBW E (eggs): > 0.1%
[4]
  LC50 CL: > 0.1%
[5]
  LC50 LH: > 0.05%
[6]
  LC50 BBA: 0.001%

## Cc1ccc(N=C(OCc2ccc(F)c(Oc3ccccc3)c2)C(C)C)cc1F [Compound 354]
[1]
  LC50 MW: 0.0068%
[2]
  LC50 HF: < 100 µg
[3]
  LC50 TBW E (eggs): 0.018%
[4]
  LC50 CL: > 0.1%
[5]
  LC50 LH: < 0.05%
[6]
  LC50 BBA: 0.001%

## Cc1ccc(N=C(OCc2ccc(F)c(Oc3ccc(F)cc3)c2)C(C)C)cc1F [Compound 355]
[1]
  LC50 MW: > 0.01%
[2]
  LC50 HF: < 100 µg
[3]
  LC50 TBW E (eggs): > 0.1%
[4]
  LC50 CL: > 0.1%
[5]
  LC50 LH: < 0.05%
[6]
  LC50 BBA: 0.0006%

## Cc1ccc(N=C(OCc2ccc(F)c(Oc3ccccc3)c2)C(C)C)cc1Cl [Compound 356]
[1]
  LC50 MW: > 0.01%
[2]
  LC50 HF: < 100 µg
[3]
  LC50 TBW E (eggs): 0.025%
[4]
  LC50 CL: > 0.1%
[5]
  LC50 LH: < 0.05%
[6]
  LC50 BBA: 0.001%

## Cc1ccc(N=C(OCc2ccc(F)c(Oc3ccc(F)cc3)c2)C(C)C)cc1Cl [Compound 357]
[1]
  LC50 MW: 0.01%
[2]
  LC50 HF: < 100 µg
[3]
  LC50 TBW E (eggs): > 0.1%
[4]
  LC50 CL: > 0.1%
[5]
  LC50 LH: < 0.05%
[6]
  LC50 BBA: 0.0003%

## Cc1cc(N=C(OCc2ccc(F)c(Oc3ccccc3)c2)C(C)C)ccc1Br [Compound 358]
[1]
  LC50 MW: > 0.01%
[2]
  LC50 HF: < 100 µg
[3]
  LC50 TBW E (eggs): > 0.1%
[4]
  LC50 CL: > 0.1%
[5]
  LC50 LH: < 0.05%
[6]
  LC50 BBA: 0.0003%

## Cc1cc(N=C(OCc2ccc(F)c(Oc3ccc(F)cc3)c2)C(C)C)ccc1Br [Compound 359]
[1]
  LC50 MW: > 0.01%
[2]
  LC50 HF: < 100 µg
[3]
  LC50 TBW E (eggs): 0.023%
[4]
  LC50 CL: > 0.1%
[5]
  LC50 LH: 0.05%
[6]
  LC50 BBA: 0.0006%

## CCc1ccc(N=C(OCc2ccc(F)c(Oc3ccccc3)c2)C(C)C)cc1 [Compound 360]
[1]
  LC50 MW: > 0.01%
[2]
  LC50 HF: < 100 µg
[3]
  LC50 TBW E (eggs): > 0.1%
[4]
  LC50 CL: 0.006%
[5]
  LC50 LH: < 0.05%
[6]
  LC50 BBA: 0.0006%

## CCc1ccc(N=C(OCc2ccc(F)c(Oc3ccc(F)cc3)c2)C(C)C)cc1 [Compound 361]
[1]
  LC50 MW: > 0.01%
[2]
  LC50 HF: < 100 µg
[3]
  LC50 TBW E (eggs): 0.04%
[4]
  LC50 CL: 0.001%
[5]
  LC50 LH: < 0.05%
[6]
  LC50 BBA: 0.0003%

## CSc1cccc(N=C(OCc2ccc(F)c(Oc3ccccc3)c2)C(C)C)c1 [Compound 362]
[1]
  LC50 MW: > 0.01%
[2]
  LC50 HF: < 100 µg
[3]
  LC50 TBW E (eggs): > 0.1%
[4]
  LC50 CL: > 0.1%
[5]
  LC50 LH: > 0.05%
[6]
  LC50 BBA: 0.005%

## COc1ccc(N=C(OCc2ccc(F)c(Oc3ccc(F)cc3)c2)C(C)C)cc1OC [Compound 363]
[1]
  LC50 MW: > 0.01%
[2]
  LC50 HF: < 100 µg
[3]
  LC50 TBW E (eggs): > 0.1%
[4]
  LC50 CL: > 0.1%
[5]
  LC50 LH: > 0.05%
[6]
  LC50 BBA: 0.005%

## CC(C)C(=Nc1ccc(Br)c(C(F)(F)F)c1)OCc1ccc(F)c(Oc2ccc(F)cc2)c1 [Compound 364]
[1]
  LC50 MW: > 0.01%
[2]
  LC50 HF: < 100 µg
[3]
  LC50 TBW E (eggs): 0.025%
[4]
  LC50 CL: 0.00045%
[5]
  LC50 LH: < 0.05%
[6]
  LC50 BBA: 0.001%

## CC(C)C(=Nc1ccc(C(F)(F)F)cc1)OCc1cccc(Oc2ccc(Cl)cc2)c1 [Compound 365]
[1]
  LC50 MW: > 0.01%
[2]
  LC50 HF: > 100 µg
[3]
  LC50 TBW E (eggs): 0.038%
[4]
  LC50 CL: 0.00025%
[5]
  LC50 LH: < 0.05%
[6]
  LC50 BBA: 0.003%

## CC(C)C(=Nc1ccc2c(c1)OCO2)OCc1ccc(F)c(Oc2ccc(Cl)cc2)c1 [Compound 366]
[1]
  LC50 MW: > 0.01%
[2]
  LC50 HF: < 100 µg
[3]
  LC50 TBW E (eggs): 0.012%
[4]
  LC50 CL: 0.0007%
[5]
  LC50 LH: 0.05%
[6]
  LC50 BBA: 0.0006%

## CC(C)C(=Nc1ccc2c(c1)OCO2)OCc1cccc(Oc2ccc(C(C)(C)C)cc2)c1 [Compound 367]
[1]
  LC50 MW: > 0.01%
[2]
  LC50 HF: > 100 µg
[3]
  LC50 TBW E (eggs): > 0.1%
[4]
  LC50 CL: < 0.1%
[5]
  LC50 LH: > 0.05%
[6]
  LC50 BBA: > 0.05%

## CC(C)C(=Nc1ccc(F)cc1)OCCc1cccc(Oc2ccccc2)c1 [Compound 456]
[1]
  LC50 MW: > 0.01%
[2]
  LC50 HF: > 100 µg
[3]
  LC50 TBW E (eggs): > 0.05%
[4]
  LC50 CL: 0.017%
[5]
  LC50 LH: > 0.05%
[6]
  LC50 BBA: 0.01%

## CC(C)C(=Nc1ccc(F)c(Cl)c1)OCc1ccc(OCc2ccccc2)cc1 [Compound 475]
[1]
  LC50 MW: > 0.01%
[2]
  LC50 HF: > 100 µg
[3]
  LC50 TBW E (eggs): > 0.1%
[4]
  LC50 CL: 0.008%
[5]
  LC50 LH: > 0.05%
[6]
  LC50 BBA: > 0.05%

## C=CCOc1cccc(COC(=Nc2ccc(F)c(Cl)c2)C(C)C)c1 [Compound 479]
[1]
  LC50 MW: > 0.01%
[2]
  LC50 HF: 66 µg
[3]
  LC50 TBW E (eggs): > 0.1%
[4]
  LC50 CL: 0.013%
[5]
  LC50 LH: > 0.05%
[6]
  LC50 BBA: > 0.05%

## CC(C)C(=Nc1ccc(F)c(Cl)c1)OCc1cccc(OCc2ccc(F)cc2)c1 [Compound 490]
[1]
  LC50 MW: > 0.01%
[2]
  LC50 HF: > 100 µg
[3]
  LC50 TBW E (eggs): > 0.1%
[4]
  LC50 CL: 0.0045%
[5]
  LC50 LH: > 0.05%
[6]
  LC50 BBA: > 0.05%

## CC(C)C(=Nc1ccc(F)c(Cl)c1)OCc1cccc(Oc2ccc(Br)cc2)n1 [Compound 492]
[1]
  LC50 MW: > 0.01%
[2]
  LC50 HF: 15 µg
[3]
  LC50 TBW E (eggs): 0.015%
[4]
  LC50 CL: 0.00028%
[5]
  LC50 LH: > 0.05%
[6]
  LC50 BBA: > 0.05%

## CC(C)C(=Nc1ccc(F)c(Cl)c1)OCc1cccc(Nc2ccc(F)cc2)c1 [Compound 512]
[1]
  LC50 MW: > 0.01%
[2]
  LC50 HF: 35 µg
[3]
  LC50 TBW E (eggs): > 0.1%
[4]
  LC50 CL: 0.003%
[5]
  LC50 LH: > 0.05%
[6]
  LC50 BBA: > 0.05%

## CC(C)C(=Nc1cccc(C(F)(F)F)c1)OCc1cccc(Nc2ccc(F)cc2)c1 [Compound 513]
[1]
  LC50 MW: > 0.01%
[2]
  LC50 HF: 81 µg
[3]
  LC50 TBW E (eggs): > 0.1%
[4]
  LC50 CL: 0.007%
[5]
  LC50 LH: > 0.05%
[6]
  LC50 BBA: > 0.05%

## CC(C)C(=Nc1ccc(Cl)c(Cl)c1)OCc1cccc(Nc2ccc(F)cc2)c1 [Compound 514]
[1]
  LC50 MW: > 0.01%
[2]
  LC50 HF: > 100 µg
[3]
  LC50 TBW E (eggs): > 0.1%
[4]
  LC50 CL: 0.008%
[5]
  LC50 LH: > 0.05%
[6]
  LC50 BBA: 0.003%

## CC(C)C(=Nc1ccc2c(c1)OCO2)OCc1cc(Oc2ccc(F)cc2)ccn1 [Compound 515]
[1]
  LC50 MW: > 0.01%
[2]
  LC50 HF: 28 µg
[3]
  LC50 TBW E (eggs): > 0.1%
[4]
  LC50 CL: 0.0015%
[5]
  LC50 LH: > 0.05%
[6]
  LC50 BBA: > 0.05%

## CC(C)C(=Nc1ccc(F)c(Cl)c1)OCc1cc(Oc2ccc(Cl)cc2)ccn1 [Compound 516]
[1]
  LC50 MW: > 0.01%
[2]
  LC50 HF: > 100 µg
[3]
  LC50 TBW E (eggs): > 0.1%
[4]
  LC50 CL: 0.008%
[5]
  LC50 LH: > 0.05%
[6]
  LC50 BBA: > 0.05%

## CC(C)C(=Nc1cccc(C(F)(F)F)c1)OCc1ccnc(Oc2ccc(Cl)cc2)c1 [Compound 517]
[1]
  LC50 MW: > 0.01%
[2]
  LC50 HF: 80 µg
[3]
  LC50 TBW E (eggs): 0.04%
[4]
  LC50 CL: 0.0008%
[5]
  LC50 LH: > 0.05%
[6]
  LC50 BBA: > 0.05%
